Results: patent US11932658B2 (BRISTOL-MYERS SQUIBB COMPANY, priority 2016, dated 2024)

Biological target: T1, PAR4 (Homo sapiens, UniProt Q96RI0)
T1 construct: expressed in transfected cells; host or cells: HEK293 PAR4 Clone 1.2A (BMS Arctic ID 383940)
T1 sequence (Q96RI0 18-385): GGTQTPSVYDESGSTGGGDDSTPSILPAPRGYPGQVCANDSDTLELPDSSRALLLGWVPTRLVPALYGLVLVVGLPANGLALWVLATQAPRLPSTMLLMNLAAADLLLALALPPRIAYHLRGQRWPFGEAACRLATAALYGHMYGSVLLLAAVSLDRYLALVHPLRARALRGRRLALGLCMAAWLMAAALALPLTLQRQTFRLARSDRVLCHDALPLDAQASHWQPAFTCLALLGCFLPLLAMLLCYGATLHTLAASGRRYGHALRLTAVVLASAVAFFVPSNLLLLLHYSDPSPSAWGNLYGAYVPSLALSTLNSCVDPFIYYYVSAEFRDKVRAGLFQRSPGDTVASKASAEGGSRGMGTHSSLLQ
Test: PAR4 FLIPR assay (antagonism of agonist peptide-induced calcium mobilization)
Format: cell-based
Method in brief: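 Antagonism was taken as block of calcium mobilization evoked by the agonist peptide H-Ala-Phe(4-F)-Pro-Gly-Trp-Leu-Val-Lys-Asn-[…]-NH2, added after 30 min room-temperature compound preincubation in dye-loaded PAR4-transfected HEK293 cells (endogenous PAR1). Fluorescence was read on FDSS, with compound addition alone used as the agonist counter-screen; values come from 11-point concentration-response curves.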

Row | SMILES | IC50
1 | COc1cnc2c(-c3nc4cc(F)c5c(c4s3)C[C@@H](CNC(=O)OCCF)O5)cc(C)cc2n1 [Example 247, (S)-2-fluoroethyl ((5-fluoro-2-(2-methoxy-7-methylquinoxalin-5-yl)-7,8-dihydrobenzofuro[5,4-d]thiazol-7-yl)methyl)carbamate] | 0.7 nM
2 | COc1cnc2c(-c3nc4cc(F)c5c(c4s3)C[C@@H](CNC(=O)OCC(F)(F)F)O5)cc(C)cc2n1 [Example 249, (S)-2,2,2-trifluoroethyl ((5-fluoro-2-(2-methoxy-7-methylquinoxalin-5-yl)-7,8-dihydrobenzofuro[5,4-d]thiazol-7-yl)methyl)carbamate] | 1 nM
3 | COCCOC(=O)NC[C@@H]1Cc2c(c(F)cc3nc(-c4cc(C)cc5nc(OC)cnc45)sc23)O1 [Example 250, (S)-2-methoxyethyl ((5-fluoro-2-(2-methoxy-7-methylquinoxalin-5-yl)-7,8-dihydrobenzofuro[5,4-d]thiazol-7-yl)methyl)carbamate] | 2.3 nM
4 | COc1cnc2c(-c3nc4cc(F)c5c(c4s3)[C@@H](C)[C@H](COC(=O)Nc3cnc(OCCO)nc3)O5)cc(C)cc2n1 [Example 252, ((7R,8R)-5-fluoro-2-(2-methoxy-7-methylquinoxalin-5-yl)-8-methyl-7,8-dihydrobenzofuro[5,4-d]thiazol-7-yl)methyl (2-(2-hydroxyethoxy)pyrimidin-5-yl)carbamate] | 88 nM
5 | COc1cnc2c(-c3nc4cc(F)c5c(c4s3)[C@H](C)[C@@H](CO)O5)cc(Cl)cc2n1 [Example 253, ((7S,8S)-2-(7-chloro-2-methoxyquinoxalin-5-yl)-5-fluoro-8-methyl-7,8-dihydrobenzofuro [5,4-d]thiazol-7-yl)methanol] | 2.7 nM
6 | COC(=O)NC[C@H]1Oc2c(F)cc3nc(-c4cc(C)cc5nc(OC)cnc45)sc3c2[C@@H]1C [Example 255, Methyl (((7S,8S)-5-fluoro-2-(2-methoxy-7-methylquinoxalin-5-yl)-8-methyl-7,8-dihydrobenzofuro[5,4-d]thiazol-7-yl)methyl)carbamate] | 1.4 nM
7 | COc1cnc2c(-c3nc4cc(F)c5c(c4s3)[C@H](C)[C@@H](CNC(=O)OCC(C)C)O5)cc(C)cc2n1 [Example 256, Isobutyl (((7S,8S)-5-fluoro-2-(2-methoxy-7-methylquinoxalin-5-yl)-8-methyl-7,8-dihydrobenzofuro[5,4-d]thiazol-7-yl)methyl)carbamate] | 0.7 nM
8 | COc1cnc2c(-c3nc4cc(F)c5c(c4s3)C[C@@H](CNC(=O)NC3CC3)O5)cc(C)cc2n1 [Example 257, (S)-1-cyclopropyl-3-((5-fluoro-2-(2-methoxy-7-methylquinoxalin-5-yl)-7,8-dihydrobenzofuro[5,4-d]thiazol-7-yl)methyl)urea] | 50 nM
9 | COc1cnc2c(-c3nc4cc(F)c5c(c4s3)C[C@@H](CNC(=O)N3CCOCC3)O5)cc(C)cc2n1 [Example 258, (S)-N-((5-fluoro-2-(2-methoxy-7-methylquinoxalin-5-yl)-7,8-dihydrobenzofuro[5,4-d]thiazol-7-yl)methyl)morpholine-4-carboxamide] | 8.1 nM
10 | CCOc1cnc2c(-c3nc4cc(F)c5c(c4s3)[C@H](C)[C@@H](CO)O5)cc(C)cc2n1 [Example 259, ((7S,8S)-2-(2-ethoxy-7-methylquinoxalin-5-yl)-5-fluoro-8-methyl-7,8-dihydrobenzofuro[5,4-d]thiazol-7-yl)methanol] | 1.1 nM
11 | CCOC(=O)NC[C@@H]1Cc2c(c(F)cc3nc(-c4cc(C)cc5nc(OC)cnc45)sc23)O1 [Example 260, (S)-ethyl ((5-fluoro-2-(2-methoxy-7-methylquinoxalin-5-yl)-7,8-dihydrobenzofuro[5,4-d]thiazol-7-yl)methyl)carbamate] | 1 nM
12 | COc1cnc2c(-c3nc4cc(F)c5c(c4s3)C[C@@H](CNC(=O)OCC(C)(C)C)O5)cc(C)cc2n1 [Example 261, (S)-neopentyl ((5-fluoro-2-(2-methoxy-7-methylquinoxalin-5-yl)-7,8-dihydrobenzofuro[5,4-d]thiazol-7-yl)methyl)carbamate] | 1.1 nM
13 | COc1cnc2c(-c3nc4c(C(O)C(C)(C)C)cc5c(c4s3)OCO5)cc(C)cc2n1 (stereo not drawn) [Example 263, 1-(7-(2-methoxy-7-methylquinoxalin-5-yl)-[1,3]dioxolo[4′,5′:3,4]benzo[1,2-d]thiazol-5-yl)-2,2-dimethylpropan-1-ol] | 5.7 nM
14 | COc1cnc2c(-c3nc4cc(F)c5c(c4s3)C[C@H](COC(=O)Nc3cnc(C)nc3)O5)cc(C)cc2c1 [Example 269, (R)-(5-fluoro-2-(3-methoxy-6-methylquinolin-8-yl)-7,8-dihydrobenzofuro[5,4-d]thiazol-7-yl)methyl (2-methylpyrimidin-5-yl)carbamate] | 2.7 nM
15 | CCOc1cnc2c(-c3nc4cc(F)c5c(c4s3)C[C@H](COC(=O)Nc3cnc(C)nc3)O5)cc(Cl)cc2c1 [Example 270, (R)-(2-(6-chloro-3-ethoxyquinolin-8-yl)-5-fluoro-7,8-dihydrobenzofuro[5,4-d]thiazol-7-y 1)methyl (2-methylpyrimidin-5-yl)carbamate] | 2.2 nM

Continued by falling IC50, values first:

Row | IC50 | SMILES
16 | 24 nM | COc1cnc2c(-c3nc4cc(F)c5c(c4s3)C[C@@H](CNC(=O)OC3CCOCC3)O5)cc(C)cc2n1 [Example 245, (S)-tetrahydro-2H-pyran-4-yl ((5-fluoro-2-(2-methoxy-7-methylquinoxalin-5-yl)-7,8-dihydrobenzofuro[5,4-d]thiazol-7-yl)methyl)carbamate]
17 | 15 nM | COc1cnc2c(-c3nc4c(C(O)C(C)(C)C)cc5c(c4s3)OCCCO5)cc(C)cc2n1 (stereo not drawn) [Example 264, 1-(2-(2-methoxy-7-methylquinoxalin-5-yl)-8,9-dihydro-7H-[1,4]dioxepino[2′,3′:3,4]benzo[1,2-d]thiazol-4-yl)-2,2-dimethylpropan-1-ol]
18 | 7 nM | COc1cnc2c(-c3nc4cc(F)c5c(c4s3)C[C@@H](CNC(=O)Nc3ccccc3)O5)cc(C)cc2n1 [Example 248, (S)-1-((5-fluoro-2-(2-methoxy-7-methylquinoxalin-5-yl)-7,8-dihydrobenzofuro[5,4-d]thiazol-7-yl)methyl)-3-phenylurea]
19 | 5 nM | COc1cnc2c(-c3nc4cc(F)c5c(c4s3)C[C@@H](CNC(=O)OCC(C)C)O5)cc(C)cc2n1 [Example 246, (S)-isobutyl ((5-fluoro-2-(2-methoxy-7-methylquinoxalin-5-yl)-7,8-dihydrobenzofuro[5,4-d]thiazol-7-yl)methyl)carbamate]
20 | 4.9 nM | CCOc1cnc2c(-c3nc4ccc5c(c4s3)OC[C@H](COC(=O)Nc3cnc(C)nc3)O5)cc(Cl)cc2c1 [Example 271, (R)-(2-(6-chloro-3-ethoxyquinolin-8-yl)-7,8-dihydro-[1,4]dioxino[2′,3′:3,4]benzo[1,2-d]thiazol-7-yl)methyl (2-methylpyrimidin-5-yl)carbamate]
21 | 4.4 nM | COc1cnc2c(-c3nc4ccc5c(c4s3)OC[C@H](COC(=O)Nc3cnc(C)nc3)O5)cc(C)cc2c1 [Example 268, (R)-(2-(3-methoxy-6-methylquinolin-8-yl)-7,8-dihydro-[1,4]dioxino[2′,3′:3,4]benzo[1,2-d]thiazol-7-yl)methyl (2-methylpyrimidin-5-yl)carbamate]
22 | 3.3 nM | Cc1ncc(NC(=O)OC[C@H]2COc3c(ccc4nc(-c5cc(Cl)cc6cc(OC(F)F)cnc56)sc34)O2)cn1 [Example 272, (R)-(2-(6-chloro-3-(difluoromethoxy)quinolin-8-yl)-7,8-dihydro-[1,4]dioxino[2′,3′:3,4]benzo[1,2-d]thiazol-7-yl)methyl (2-methylpyrimidin-5-yl)carbamate]
23 | 2.3 nM | COc1cnc2c(-c3nc4c(C(O)C(C)(C)C)cc5c(c4s3)OCCO5)cc(C)cc2n1 (stereo not drawn) [Example 262, 1-(2-(2-methoxy-7-methylquinoxalin-5-yl)-7,8-dihydro-[1,4]dioxino[2′,3′:3,4]benzo[1,2-d]thiazol-4-yl)-2,2-dimethylpropan-1-ol]
24 | 2.1 nM | COc1cnc2c(-c3nc4ccc5c(c4s3)OC[C@H](COC(=O)Nc3cnc(C)nc3)O5)cc(Cl)cc2c1 [Example 266, (R)-(2-(6-chloro-3-methoxyquinolin-8-yl)-7,8-dihydro-[1,4]dioxino[2′,3′:3,4]benzo[1,2-d]thiazol-7-yl)methyl (2-methylpyrimidin-5-yl)carbamate]
25 | 1.8 nM | COc1cnc2c(-c3nc4cc(F)c5c(c4s3)C[C@H](COC(=O)Nc3cnc(C)nc3)O5)cc(Cl)cc2c1 [Example 267, (R)-(2-(6-chloro-3-methoxyquinolin-8-yl)-5-fluoro-7,8-dihydrobenzofuro[5,4-d]thiazol-7-yl)methyl (2-methylpyrimidin-5-yl)carbamate]
26 | 0.9 nM | COc1cnc2c(-c3nc4cc(F)c5c(c4s3)C[C@](C)(COC(=O)Nc3cnc(OCCO)nc3)O5)cc(C)cc2n1 [Example 251, (R)-(5-fluoro-2-(2-methoxy-7-methylquinoxalin-5-yl)-7-methyl-7,8-dihydrobenzofuro[5,4-d]thiazol-7-yl)methyl (2-(2-hydroxyethoxy)pyrimidin-5-yl)carbamate]
27 | 0.6 nM | COc1cnc2c(-c3nc4cc(F)c5c(c4s3)[C@H](C)[C@@H](CO)O5)cc(C#N)cc2n1 [Example 254, 8-((7S,8S)-5-fluoro-7-(hydroxymethyl)-8-methyl-7,8-dihydrobenzofuro[5,4-d]thiazol-2-y 1)-3-methoxyquinoxaline-6-carbonitrile]
